Test results taken from PMC10518340, “Secreted LRPAP1 binds and triggers IFNAR1 degradation to facilitate virus evasion from cellular innate immunity” (Signal Transduction and Targeted Therapy, 2023).

What was measured:
[1] = test system: HCoV-OC43; assay: HCoV-OC43 infection of RD cells (viral RNA, TCID50, CPE); details: antibody 0.5 μg/ml; peptides 1 μM or rLRPAP1 200 nM pre-treatment 1 h, 72 h; siRNA 24 h then MOI 1, 72 h
[2] = test system: IFNAR1; assay: IFNAR1 protein level, HepAD38 cells, immunoblot; type: cell-based; details: siRNA or overexpression 48 h; LF 400 nM 24 h
[3] = test system: HSV-1; assay: HSV-1 infection of RD cells (viral DNA, TCID50, viral protein, CPE)
[4] = test system: type I IFN signaling pathway; assay: Interferon-stimulated gene (ISG) mRNA levels, RD cells; type: cell-based; details: excessive LRPAP1 expression
[5] = test system: HBV; assay: HBV level in HepAD38 cells, immunoblot; type: cell-based; details: HepAD38, siRNA or overexpression 48 h
[6] = test system: IFNAR1; assay: IFNAR1 protein level, immunoblot, HEK-293T cells; type: cell-based, human
[7] = test system: 2A^pro; assay: MST binding to recombinant 2A protease (baits r2A and 2Am; MS and MST); parameters: species or system EV71; details: recombinant 2A^pro (r2A) and 2A^C110A (2Am) as baits
Experimental: (§1) The polyhistidine (His)-tag peptides, the recombinant 2A, the recombinant 2Am, and ECD-IFNAR1, were incubated with the RED-tris-NTA 2nd Generation dye (Cat#MO-L018, Nanotemper-Technologies) for 30 min, respectively. Then these fluorescently labeled peptides were mixed with the serial diluted ligands, including the scramble peptide, the commercial penetrating peptide (RV5), LRPAP1 peptides (RAPD1P1, RAPD1P2), or rLRPAP1 without His-tag, respectively. The mixtures were captured by Monolith^TM NT.115 Series capillaries (Cat# MO-K022). Capillaries were then subjected to Monolith NT for MST analysis. According to Monolith guidelines, signal-to-noise (S/N) ratios greater than 5.0 were indicated as the valid binding.
as §1, with “NT. For” for “NT for”, “According to Monolith guidelines, signal-to-noise (S/N) ratios greater than 5.0 were indicated as the valid binding.” left out

[8] = test system: EV71; assay: EV71 infection of RD cells (viral RNA, titer, viral protein, CPE); details: RD cells, 9 h; plasmid, recombinant protein or peptide pre-treatment; viral RNA / titer
[9] = test system: extracellular domain of IFNAR1; assay: Pull-down / co-immunoprecipitation of LRPAP1 with IFNAR1; type: binding; details: HEK-293T cells ectopic-expressing LRPAP1 and IFNAR1; also mouse cerebrum
Experimental: (§2) The interaction of LRPAP1, LRP1 and IFNAR1 was examined by immunoprecipitation using a protocol described as followed. HEK293T cells were cultured at around 90% confluence in a 100 mm tissue culture dish. Cells were washed with 10 ml of PBS and harvested in 0.5 ml of ice-cold lysis buffer ([…], pH 7.4, 1% SDS, 1% NP-40) and Protease Cocktail (Roche) and PhoSTOP (Roche). The total extract was pre-cleared with 10 μg normal rabbit IgG (Cell signaling, 2729 S) and 20 μl of protein A/G plus-agarose (Santa Cruz Biotechnology) at 4 °C on a rotor for 1 h. After gently removed protein A/G agarose beads by centrifugation at 500 rcf for 2 min, 0.2 mg of total extract was immunoprecipitated with the indicated antibodies overnight at 4 °C on a rotor. Approximately 20 μl of protein A/G plus-agarose (Santa Cruz Biotechnology) was added at 4 °C for one hour. Then, the beads were washed three times with washing buffer (lysis buffer contained 0.1% NP-40). The pellet was suspended with 40 μl PBS and 10 μl of 5× SDS-PAGE loading buffer and the samples were boiled for 10 min.
The interaction of LRPAP1, LRP1 and IFNAR1 was examined by immunoprecipitation using a protocol described as followed. HEK293T cells were cultured at around 90% confluence in a 100 mm tissue culture dish. […]

[10] = test system: IFNAR1; assay: IFNAR1 ubiquitination, immunoprecipitation, HEK-293T cells; type: cell-based, human; details: ubiquitin, LRPAP1 and IFNAR1 overexpressed
Experimental: as §2

LDL-receptor-related protein-associated protein 1 [LRPAP1]
HCoV-OC43 CPE [1]: more obvious cytopathic effects
IFNAR1 expression in HepAD38 cells [2]: decreased level of IFNAR1
HSV-1 CPE ([3]; peptides 1 μM or rLRPAP1 200 nM pre-treatment 1 h, 24 h): more obvious cytopathic effect
HSV-1 DNA replication ([3]; pre-treated 1 h, MOI 10, 24 h, RT-qPCR): promoted the DNA replication of HSV-1
type I IFN signaling pathway [4]: suppressing the type I IFN signaling pathway and the expression of downstream interferon-stimulated genes
HBV level [5]: higher HBV loads
IFNAR1 level on simultaneous expression of LRPAP1 and 2A^pro ([6]; co-expressed with 2A^pro): complete undetectability of IFNAR1 levels
IFNAR1 level ([6]; transfected cells (ectopic expression or siRNA)): decreasing IFNAR1 to a marginal detectable level
interaction with 2A^pro [7]: interacts with 2A^pro
EV71 infection [8]: strikingly promoted EV71 infection
interaction of LRPAP1 and IFNAR1 (co-immunoprecipitation) [9]: confirmed the interaction of LRPAP1 and IFNAR1
IFNAR1 ubiquitination [10]: dramatically increased IFNAR1 ubiquitination
